Values joined by “and” are separate entries in the source; they are usually repeats but may differ in a detail not shown here. Equal entries are not always repeated.
Key:
[1] = Plasma protein binding by equilibrium dialysis, human; type: in vitro ADME; conditions: plasma (EDTA-K2 as anticoagulant)
Method: (§1) The in vitro binding of ZB716 to plasma proteins was determined by equilibrium dialysis technique in mouse, rat, dog, monkey, and human plasma (EDTA-K2 as anticoagulant), over the concentration range of 0.1–10 μM. The free concentration of ZB716 was below the lower limit of quantitation at 0.1, 1, and 10 μM in human, monkey, dog, rat, and mouse plasma.
(§2) The equilibrium dialysis method was used to investigate the in vitro binding of ZB716 to human, monkey, dog, rat, and mouse plasma proteins. The dialysis phosphate buffer solution (100 mM, pH 7.4) and plasma samples containing 0.1, 1, and 10 μM of ZB716 were added to separate chambers of dialysis wells of the HTDialysis device. The dialysis plate was placed in an incubator at 37 °C with 5% CO2 at approximately 100 rpm for 6 h. After incubation, the seal was removed, and 50 μL each of post-dialysis samples was pipetted from both the buffer and plasma chambers into fresh 96-well plates. The samples were analyzed via UPLC–MS/MS. The bound fraction, unbound fraction, recovery (%), and remaining (%) were calculated by Equations (2)–(5):%Unbound = (Conc.buffer chamber/Conc.plasma chamber) × 100(2) %Bound = 100% − %Unbound (3) %Recovery = (Conc.buffer chamber + Conc.plasma chamber)/Conc.Total sample × 100 (4) %Remaining = Conc.6h/Conc.0h × 100 (5)

human plasma proteins = experiment: as above; type: in vitro ADME; conditions: for Remaining: 6 h
Method: as §1, §2

CYP1A2 [2] = molecular target: T1, CYP1A2 (Homo sapiens, UniProt P05177); experiment: CYP inhibition in human liver microsomes, CYP1A2; type: in vitro ADME; conditions: HLM, marker substrate Phenacetin
T1 sequence (P05177 1-516): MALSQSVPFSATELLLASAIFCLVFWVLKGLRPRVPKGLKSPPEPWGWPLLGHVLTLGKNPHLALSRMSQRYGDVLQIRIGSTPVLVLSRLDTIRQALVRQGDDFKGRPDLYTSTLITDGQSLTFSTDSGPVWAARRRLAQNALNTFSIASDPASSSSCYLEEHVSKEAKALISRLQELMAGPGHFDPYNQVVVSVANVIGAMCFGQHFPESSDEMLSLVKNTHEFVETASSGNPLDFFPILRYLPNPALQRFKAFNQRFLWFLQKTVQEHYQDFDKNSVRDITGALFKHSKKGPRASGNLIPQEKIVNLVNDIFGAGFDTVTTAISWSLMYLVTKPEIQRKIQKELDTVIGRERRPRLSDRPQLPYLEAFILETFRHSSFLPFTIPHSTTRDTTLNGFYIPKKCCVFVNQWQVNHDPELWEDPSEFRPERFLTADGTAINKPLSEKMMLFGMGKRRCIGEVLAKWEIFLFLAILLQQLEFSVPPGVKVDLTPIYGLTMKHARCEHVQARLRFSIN
Method: (§3) . The inhibition of CYP2B6 and 3A4 (when midazolam was used as the substrate) by ZB716 was not observed. The inhibitory potential of ZB716 on human CYP enzyme activities appears relatively low.
(§4) The final concentrations of ZB716 in the incubation system were 0, 0.05, 0.15, 0.5, 1.5, 5, and 15 µM (final organic solvent concentration ≤ 1%). […] . […] The concentrations of the isoform-specific metabolites derived from marker substrates were measured by UPLC–MS/MS. The IC50 values were calculated from the percentages of the rate of the metabolite formation relative to non-inhibited controls vs. the concentrations of ZB716 or positive control inhibitors. All incubations were performed in triplicate. The mean of the enzyme activity (% of non-inhibited control) for each concentration was plotted against the log inhibitor concentration, and fitted to an IC50 curve.

human liver microsomes = experiment: ZB716 remaining in human liver microsomes with and without CYP-specific chemical inhibitors; conditions: HLM
Method: Bactosomes prepared from E. coli that heterologously expressed individual human CYP isoforms together with human CYP reductase were obtained from CYPEX LTD (Scotland, UK), and stored at −80 °C prior to use. […] Timepoints were taken at 0, 5, 10, 15, 20, and 30 min. Substrate disappearance was used to calculate intrinsic clearance (Clint) and half-life (t1/2). All incubations were performed in triplicate. […] The chemical inhibitors for CYP1A2, 2A6, 2B6, 2C8, 2C9, 2C19, 2D6, and 3A4 were furafylline, tranylcypromine, ticlopidine, montelukast, sulfaphenazole, N-3-benzylnirvanol, quinidine, and ketoconazole, respectively. Timepoints were collected at 0, 15, 30, 45, and 60 min, and the remaining percentage of the parent drug at each timepoint was calculated (the calculation details are available in the Supplementary Materials). All incubations were performed in triplicate.
The slope, k, was determined by linear regression of the natural logarithm of percent parent disappearance vs. incubation time curve. Peak areas for test article and internal standard were determined from extracted ion chromatograms. The peak area ratio was used to calculated for the results.
The half-life value (t1/2 rCYPi) was determined from the slope value:
Conversion of the t1/2 rCYPi (in min) into the intrinsic clearance (Clint rCYPi in μL/min/pmol) was done using the following equation:
1.3.2 For inhibition ratio (%) (Liver microsomes with and without inhibitors) The slope value, k, was determined by linear regression of the natural logarithm of the remaining percentage of the parent drug vs. incubation time curve. If the turnover was not significant (T-test with p<0.05 was not obtained) and the percentage remaining at last time point was ≥ 80%, the k value was

CYP1A2 [3] = experiment: CYP induction (enzyme activity) in cryopreserved human hepatocytes, CYP1A2; conditions: for fold induction at 72 h, 0.15 µM / fold induction at 72 h, 1.5 µM / fold induction at 72 h, 5 µM / fold induction at 72 h, 15 µM: human, plated cryopreserved human hepatocytes
Method: The UPLC–MS/MS (SHIMADZU, LC-30AD) equipped with waters Xselect®HSS T3 2.5 μm (2.1 × 50 mm) was used to detect the marker metabolites in the enzyme activity assay. The fold-induction enzyme activity was determined using the ratio calculation (the calculation details are available in the Supplementary Materials).
CYP activity was expressed as pmol/min/million cells where pmol was defined as the amount of metabolite formed during the reaction. […] The fold-induction enzyme activity was determined by the ratio:
Fold of induction = CYP activity(induced) / CYP activity(vehicle)
% of positive control = (𝑪𝒀𝑷 𝒂𝒄𝒕𝒊𝒗𝒊𝒕𝒚(𝒊𝒏𝒅𝒖𝒄𝒆𝒅)ି 𝑪𝒀𝑷 𝒂𝒄𝒕𝒊𝒗𝒊𝒕𝒚(𝑫𝑴𝑺𝑶))(𝑪𝒀𝑷 𝒂𝒄𝒕𝒊𝒗𝒊𝒕𝒚(𝒑𝒐𝒔𝒊𝒕𝒊𝒗𝒆 𝒄𝒐𝒏𝒕𝒓𝒐𝒍)ି 𝑪𝒀𝑷 𝒂𝒄𝒕𝒊𝒗𝒊𝒕𝒚(𝑫𝑴𝑺𝑶))х 𝟏𝟎𝟎 Based on the enzyme activity, a minimum of 2-fold increase of a response compared to vehicle control and ≥ 20% of the positive control was considered as the cutoff for a positive signal in in vitro induction

CYP2C9 = CYP2C9 (Homo sapiens, UniProt P11712); experiment: CYP inhibition in human liver microsomes, CYP2C9; type: in vitro ADME; conditions: HLM, marker substrate Diclofenac
Chain of CYP2C9 (P11712 whole entry): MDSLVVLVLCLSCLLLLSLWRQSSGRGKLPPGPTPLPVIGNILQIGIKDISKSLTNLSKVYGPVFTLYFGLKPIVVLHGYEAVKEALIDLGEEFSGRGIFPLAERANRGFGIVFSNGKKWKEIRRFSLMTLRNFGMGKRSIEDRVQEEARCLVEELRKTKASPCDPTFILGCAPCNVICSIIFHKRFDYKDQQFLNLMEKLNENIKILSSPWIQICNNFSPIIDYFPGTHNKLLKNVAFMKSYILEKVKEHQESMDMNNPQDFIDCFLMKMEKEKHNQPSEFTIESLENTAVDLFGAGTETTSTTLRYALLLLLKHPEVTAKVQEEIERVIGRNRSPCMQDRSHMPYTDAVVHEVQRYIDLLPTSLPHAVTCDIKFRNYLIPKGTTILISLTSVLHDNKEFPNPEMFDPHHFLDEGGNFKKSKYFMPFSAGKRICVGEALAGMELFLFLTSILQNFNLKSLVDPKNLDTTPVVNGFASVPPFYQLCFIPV
Method: as §3, §4

[4] = 2 µM ZB716, with CYP1A2 inhibitor Furafylline
[5] = 2 µM ZB716, with CYP2A6 inhibitor Tranylcypromine
[6] = 2 µM ZB716, with CYP2B6 inhibitor Ticlopidine
[7] = 2 µM ZB716, with CYP2C8 inhibitor Montelukast
[8] = 2 µM ZB716, with CYP2C9 inhibitor Sulfaphenazole
[9] = 2 µM ZB716, with CYP2C19 inhibitor N-3-benzylnirvanol
[10] = 2 µM ZB716, with CYP2D6 inhibitor Quinidine
[11] = 2 µM ZB716, with CYP3A inhibitor Ketoconazole

C[C@]12CC[C@@H]3c4ccc(B(O)O)cc4C[C@@H](CCCCCCCCC[S+]([O-])CCCC(F)(F)C(F)(F)F)[C@H]3[C@@H]1CC[C@@H]2O (stereo partly drawn) [ZB716, fulvestrant-3-boronic acid] gave a recovery at 6 h, 0.1 μM ([1]; pH 7.4, 0.1 μM) of under 69.1%, a recovery at 6 h, 1 μM ([1]; pH 7.4, 1 μM) of under 64% and a recovery at 6 h, 10 μM ([1]; pH 7.4, 10 μM) of under 74.7%. For the same compound, the Bound (human plasma proteins; 0.1 μM) was over 95.7%, the Unbound (human plasma proteins; 0.1 μM) was under 4.33% and the Remaining (human plasma proteins; 0.1 μM) was 57.0 ± 7.7%. For the same compound, the Bound (human plasma proteins; 1 μM) was over 99.6%, the Unbound (human plasma proteins; 1 μM) was under 0.392% and the Remaining (human plasma proteins; 1 μM) was 57.9 ± 4.9%. For the same compound, the Bound (human plasma proteins; 10 μM) was over 99.96%, the Remaining (human plasma proteins; 10 μM) was 74.5 ± 3.4% and the IC50 (CYP1A2 [2]) was over 15 µM. For the same compound, the Inhibition % (human liver microsomes; 2 µM ZB716, Without Inhibitor) was 0.00%, the “Remaining Percentage (%) at 15 min” value (human liver microsomes; 2 µM ZB716, Without Inhibitor) was 18.7 ± 1.2% and the “Remaining Percentage (%) at 60 min” value (human liver microsomes; 2 µM ZB716, Without Inhibitor) was 5.74 ± 0.52%. For the same compound, the Inhibition % (human liver microsomes; [4]) was −48.9%, the “Remaining Percentage (%) at 15 min” value (human liver microsomes; [4]) was 8.24 ± 0.80% and the “Remaining Percentage (%) at 60 min” value (human liver microsomes; [4]) was 1.43 ± 0.51%. The Inhibition % (human liver microsomes; [5]) was −14.4%, the “Remaining Percentage (%) at 15 min” value (human liver microsomes; [5]) was 14.8 ± 2.5% and the “Remaining Percentage (%) at 60 min” value (human liver microsomes; [5]) was 5.24 ± 2.31%. For the same compound, the Inhibition % (human liver microsomes; [6]) was −9.46%, the “Remaining Percentage (%) at 15 min” value (human liver microsomes; [6]) was 15.9 ± 0.8% and the “Remaining Percentage (%) at 60 min” value (human liver microsomes; [6]) was 2.09 ± 0.23%. For the same compound, the Inhibition % (human liver microsomes; [7]) was −15.1%, the “Remaining Percentage (%) at 15 min” value (human liver microsomes; [7]) was 14.6 ± 2.4% and the “Remaining Percentage (%) at 60 min” value (human liver microsomes; [7]) was 3.41 ± 0.30%. The Inhibition % (human liver microsomes; [8]) was −31.8%, the “Remaining Percentage (%) at 15 min” value (human liver microsomes; [8]) was 10.9 ± 0.1% and the “Remaining Percentage (%) at 60 min” value (human liver microsomes; [8]) was 2.31 ± 0.18%. The Inhibition % (human liver microsomes; [9]) was −22.5%, the “Remaining Percentage (%) at 15 min” value (human liver microsomes; [9]) was 12.8 ± 1.2% and the “Remaining Percentage (%) at 60 min” value (human liver microsomes; [9]) was 3.10 ± 0.44%. For the same compound, the Inhibition % (human liver microsomes; [10]) was 74.7%, the “Remaining Percentage (%) at 15 min” value (human liver microsomes; [10]) was 65.6% and 65.6 ± 6.0% and the Inhibition % (human liver microsomes; [11]) was 88.2%. The “Remaining Percentage (%) at 15 min” value (human liver microsomes; [11]) was 74.4% and 74.4 ± 5.8%, the “Remaining Percentage (%) at 60 min” value (human liver microsomes; [11]) was 43.4 ± 2.8% and the “Percent of Control” value (CYP1A2 [3]; donor one, 0.15 µM) was 2.92%. The “Percent of Control” value (CYP1A2 [3]; donor one, 1.5 µM) was 18.4%, the “Percent of Control” value (CYP1A2 [3]; donor one, 5 µM) was 73.6% and the “Percent of Control” value (CYP1A2 [3]; donor one, 15 µM) was 80.0%. The “Percent of Control” value (CYP1A2 [3]; donor three, 0.15 µM) was 3.78%, the “Percent of Control” value (CYP1A2 [3]; donor three, 1.5 µM) was 45.0% and the “Percent of Control” value (CYP1A2 [3]; donor three, 5 µM) was 41.6%. The “Percent of Control” value (CYP1A2 [3]; donor three, 15 µM) was 20.3%, the “Percent of Control” value (CYP1A2 [3]; donor two, 0.15 µM) was 0.777% and the “Percent of Control” value (CYP1A2 [3]; donor two, 1.5 µM) was 8.38%. The “Percent of Control” value (CYP1A2 [3]; donor two, 5 µM) was 17.4%, the “Percent of Control” value (CYP1A2 [3]; donor two, 15 µM) was 12.6% and the fold induction at 72 h, 0.15 µM (CYP1A2 [3]; donor one, 0.15 µM) was 1.24 ± 0.1. The fold induction at 72 h, 1.5 µM (CYP1A2 [3]; donor one, 1.5 µM) was 2.52 ± 0.17, the fold induction at 72 h, 5 µM (CYP1A2 [3]; donor one, 5 µM) was 7.09 ± 0.78 and the fold induction at 72 h, 15 µM (CYP1A2 [3]; donor one, 15 µM) was 7.62 ± 1.63. The fold induction at 72 h, 0.15 µM (CYP1A2 [3]; donor three, 0.15 µM) was 1.2 ± 0.22, the fold induction at 72 h, 1.5 µM (CYP1A2 [3]; donor three, 1.5 µM) was 3.42 ± 0.2 and the fold induction at 72 h, 5 µM (CYP1A2 [3]; donor three, 5 µM) was 3.24 ± 0.53. For the same compound, the fold induction at 72 h, 15 µM (CYP1A2 [3]; donor three, 15 µM) was 2.09 ± 0.49, the fold induction at 72 h, 0.15 µM (CYP1A2 [3]; donor two, 0.15 µM) was 1.11 ± 0.05 and the fold induction at 72 h, 1.5 µM (CYP1A2 [3]; donor two, 1.5 µM) was 2.17 ± 0.03. It also gave a fold induction at 72 h, 5 µM (CYP1A2 [3]; donor two, 5 µM) of 3.44 ± 0.18, a fold induction at 72 h, 15 µM (CYP1A2 [3]; donor two, 15 µM) of 2.77 ± 0.34 and an IC50 (CYP2C9) of 4.77 µM.

— publication PMC8400955 (Pharmaceuticals, 2021)
